These results are taken from patent US20200264191A1, “METHODS AND KITS FOR DIAGNOSIS OF FAMILIAL MEDITERRANEAN FEVER” (INSERM (Institut National de la Santé et de la Recherche …, priority 2017, published 2020).

The subject of test [1] is Primary monocytes from HD or FMF patients. Kind of test: Monocyte cell death by propidium iodide incorporation. Type of test: cell-based, human. As to conditions: for difference in AUC of cell death kinetics between FMF and HD monocytes (in words): UCN-01 12.5 μM unprimed, or LPS then nigericin 5 μM. As for the experimental part: Propidium iodide incorporation was monitored every 5 minutes from 5 minutes to 105 minutes post-UCN-01/nigericin stimulation using a fluorimeter. Cell death was calculated using TX-100-treated cells (100% cell death) and normalized cell death kinetics are presented (A, D). Each symbol corresponds to the average values of the normalized cell death of monocytes from 17 HD and […]. Mean and standard deviations are shown at each time point. […] (C-G) The time post-treatment needed to reach 20% monocytes cell death was calculated from each HD (n=17) and FMF patients (n=13) cell death kinetics. […] The bar represents the mean.
Cell death was determined by measuring propidium iodide incorporation/fluorescence at 1 h30 post stauroporin addition. […] The bar represents the mean. Cell death was normalized using TX-100-treated cells (100% cell death). With a cell death threshold set at 10% (horizontal line), this assay discriminates healthy donors from FMF patients.
Three technical replicates per conditions were done.

The next test has as its target T1, PKCε (Homo sapiens, UniProt Q02156).
T1 sequence (Q02156 1-737): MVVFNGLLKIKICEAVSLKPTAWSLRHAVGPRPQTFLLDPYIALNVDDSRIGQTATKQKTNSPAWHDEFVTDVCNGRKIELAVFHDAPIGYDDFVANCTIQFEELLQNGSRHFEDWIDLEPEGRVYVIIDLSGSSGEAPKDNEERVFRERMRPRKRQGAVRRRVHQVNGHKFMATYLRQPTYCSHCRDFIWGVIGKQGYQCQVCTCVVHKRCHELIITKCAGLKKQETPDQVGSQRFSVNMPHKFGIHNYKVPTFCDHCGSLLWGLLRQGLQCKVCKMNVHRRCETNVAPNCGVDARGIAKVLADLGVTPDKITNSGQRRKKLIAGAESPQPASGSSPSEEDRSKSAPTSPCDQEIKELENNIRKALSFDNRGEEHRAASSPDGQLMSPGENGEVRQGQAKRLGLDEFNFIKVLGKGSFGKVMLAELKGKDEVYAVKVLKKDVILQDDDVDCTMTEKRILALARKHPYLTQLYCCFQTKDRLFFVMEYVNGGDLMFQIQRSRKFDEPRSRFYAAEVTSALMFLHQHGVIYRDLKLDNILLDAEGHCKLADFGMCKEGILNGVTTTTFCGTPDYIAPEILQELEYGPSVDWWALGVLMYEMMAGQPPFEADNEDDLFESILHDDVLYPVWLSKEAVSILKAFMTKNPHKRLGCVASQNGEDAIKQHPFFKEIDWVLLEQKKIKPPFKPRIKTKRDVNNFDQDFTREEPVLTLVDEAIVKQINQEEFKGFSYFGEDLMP
As to conditions: cell-free assays where stated; cited from earlier work.

A further test deals with PI3K. As to conditions: cited from earlier work.
The target in a further test is PKCα (Homo sapiens, UniProt P17252). Particulars: cell-free assays where stated; cited from earlier work.
The subject of test [2] is Primary monocytes from HD or FMF patients. Nature of the test: IL-1β release by primary monocytes (ELISA of supernatant). Particulars: LPS-primed; Ro 31-8220 100 μM or ATP 2.5 mM, 1.5 h. For orientation: In an ELISA, binding on a coated surface is turned into a signal by an enzyme label.
From the text: Blood was drawn in heparin-coated tubes and kept at room temperature overnight. The next day, peripheral blood mononuclear cells (PBMCs) were isolated by density-gradient centrifugation using Lymphocyte Separation Medium (Eurobio) [23]. Monocytes were isolated from PBMCs by magnetic selection using CD14 MicroBeads (Miltenyi Biotec) [24] and the AutoMACS Pro Separator (Miltenyi Biotec) following manufacturer's instructions. Monocytes were enumerated in the presence of a viability marker (propidium iodide, 10 μg/ml) by flow cytometry (BD Accuri C6 Flow Cytometer®) [25].
When indicated, monocytes were incubated for 3 hours in the presence of LPS (10 ng/ml, Invivogen). […] Following the incubation, cells were centrifuged and supernatants were collected.
Levels of IL-1β in monocyte supernatants were quantified by ELISA (R&D Systems). […] Three technical replicates per conditions were done.
A further test has as its target PKCβI (Homo sapiens, UniProt P05771). As to conditions: cell-free assays where stated; read-out: IC50 for PKCβI (PKCβ1); cited from earlier work.
A further test addresses PKN2 (Homo sapiens, UniProt Q16513). Particulars: cited from earlier work.
The next test addresses PKCγ (Homo sapiens, UniProt P05129). As to conditions: cell-free assays where stated; cited from earlier work.
In the next test the target is PKCβII (Homo sapiens, UniProt P05771). As to conditions: cell-free assays where stated; read-out: IC50 for PKCβII (PKCβ2); cited from earlier work.
The test system of a further test is PKC. As to conditions: cited from earlier work.
Test [3] has as its system apamin-sensitive K+ channels. As to conditions: cited from earlier work.
The next test deals with PKCθ (Homo sapiens, UniProt Q04759). As to conditions: cell-free assay; cited from earlier work.
The next test addresses T2, PKCζ (Homo sapiens, UniProt Q05513).
T2 sequence (Q05513 1-592): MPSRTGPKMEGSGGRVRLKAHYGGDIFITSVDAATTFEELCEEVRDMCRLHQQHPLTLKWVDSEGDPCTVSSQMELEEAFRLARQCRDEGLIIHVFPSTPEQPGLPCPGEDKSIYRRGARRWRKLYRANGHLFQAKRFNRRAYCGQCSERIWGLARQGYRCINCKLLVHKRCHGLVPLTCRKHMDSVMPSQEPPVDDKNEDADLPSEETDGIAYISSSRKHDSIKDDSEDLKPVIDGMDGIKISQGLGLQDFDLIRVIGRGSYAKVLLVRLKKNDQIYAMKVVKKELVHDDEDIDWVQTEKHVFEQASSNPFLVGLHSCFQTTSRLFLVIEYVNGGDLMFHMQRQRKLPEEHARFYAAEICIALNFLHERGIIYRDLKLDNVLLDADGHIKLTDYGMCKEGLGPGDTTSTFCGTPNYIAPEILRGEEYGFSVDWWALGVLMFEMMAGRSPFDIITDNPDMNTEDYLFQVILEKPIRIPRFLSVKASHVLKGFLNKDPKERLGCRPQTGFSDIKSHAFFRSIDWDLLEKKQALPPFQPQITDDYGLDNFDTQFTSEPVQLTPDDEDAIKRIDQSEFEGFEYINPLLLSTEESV
As to conditions: cited from earlier work.

Another test concerns the target PKCδ (Homo sapiens, UniProt Q05655). Particulars: cell-free assays where stated; cited from earlier work.
In a further test the target is PKCβ (Homo sapiens, UniProt P05771). Particulars: cell-free assays where stated; cited from earlier work.
The target of another test is T3, PKCμ (Homo sapiens, UniProt Q15139).
T3 sequence (Q15139 1-912): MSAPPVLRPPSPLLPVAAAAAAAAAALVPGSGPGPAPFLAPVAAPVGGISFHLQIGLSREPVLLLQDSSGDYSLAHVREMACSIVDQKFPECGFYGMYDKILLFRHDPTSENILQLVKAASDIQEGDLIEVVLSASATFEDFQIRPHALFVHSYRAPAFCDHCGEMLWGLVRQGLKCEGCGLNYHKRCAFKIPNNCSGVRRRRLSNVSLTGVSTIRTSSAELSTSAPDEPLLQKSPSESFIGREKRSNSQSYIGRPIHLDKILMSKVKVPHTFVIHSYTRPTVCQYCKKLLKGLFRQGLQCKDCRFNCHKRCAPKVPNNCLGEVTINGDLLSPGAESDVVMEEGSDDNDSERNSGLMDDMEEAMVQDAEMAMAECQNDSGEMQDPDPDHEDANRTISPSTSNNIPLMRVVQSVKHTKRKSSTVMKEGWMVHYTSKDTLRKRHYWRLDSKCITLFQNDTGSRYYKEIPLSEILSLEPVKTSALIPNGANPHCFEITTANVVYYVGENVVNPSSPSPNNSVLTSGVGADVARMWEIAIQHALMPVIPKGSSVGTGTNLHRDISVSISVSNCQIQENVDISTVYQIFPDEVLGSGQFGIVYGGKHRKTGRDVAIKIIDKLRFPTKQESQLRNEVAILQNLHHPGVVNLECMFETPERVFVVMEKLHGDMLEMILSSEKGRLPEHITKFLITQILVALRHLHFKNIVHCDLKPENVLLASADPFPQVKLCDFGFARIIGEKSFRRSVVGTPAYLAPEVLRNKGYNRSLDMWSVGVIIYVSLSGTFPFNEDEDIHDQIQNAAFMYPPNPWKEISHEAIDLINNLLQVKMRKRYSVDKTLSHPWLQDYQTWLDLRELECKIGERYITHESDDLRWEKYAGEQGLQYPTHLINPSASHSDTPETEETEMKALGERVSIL
Particulars: cited from earlier work.

The next test concerns PKA. Particulars: cited from earlier work.
The subject of the next test is PKC (Rat brain). Particulars: cited from earlier work.
Where [4] appears, read: LPS 10 ng/ml 3 h, then nigericin 5 μM.

The term IC50 denotes the concentration at which inhibition is half-maximal. A word on the Ki: it is a dissociation constant, usually derived from enzyme kinetics or from competition with a known ligand.

Sequence of PKCβI (P05771 whole entry): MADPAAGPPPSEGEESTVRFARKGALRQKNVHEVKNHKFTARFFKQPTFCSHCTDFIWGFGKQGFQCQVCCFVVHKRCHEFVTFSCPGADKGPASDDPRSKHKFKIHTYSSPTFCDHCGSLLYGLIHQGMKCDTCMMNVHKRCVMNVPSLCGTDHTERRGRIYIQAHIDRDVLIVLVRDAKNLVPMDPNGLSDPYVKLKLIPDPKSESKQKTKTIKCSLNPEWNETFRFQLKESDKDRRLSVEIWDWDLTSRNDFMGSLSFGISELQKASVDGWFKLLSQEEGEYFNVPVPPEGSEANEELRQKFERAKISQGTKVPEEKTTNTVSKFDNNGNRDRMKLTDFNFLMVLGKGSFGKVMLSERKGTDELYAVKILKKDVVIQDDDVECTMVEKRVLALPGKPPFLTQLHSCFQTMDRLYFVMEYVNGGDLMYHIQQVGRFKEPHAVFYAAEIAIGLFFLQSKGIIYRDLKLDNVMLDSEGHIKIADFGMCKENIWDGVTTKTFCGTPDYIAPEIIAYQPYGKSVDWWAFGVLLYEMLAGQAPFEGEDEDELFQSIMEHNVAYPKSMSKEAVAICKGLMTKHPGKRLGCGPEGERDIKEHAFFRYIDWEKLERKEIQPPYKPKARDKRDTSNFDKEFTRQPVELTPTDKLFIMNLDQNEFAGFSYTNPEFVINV
Sequence of PKCβII (P05771 1-673 isoform P05771-2): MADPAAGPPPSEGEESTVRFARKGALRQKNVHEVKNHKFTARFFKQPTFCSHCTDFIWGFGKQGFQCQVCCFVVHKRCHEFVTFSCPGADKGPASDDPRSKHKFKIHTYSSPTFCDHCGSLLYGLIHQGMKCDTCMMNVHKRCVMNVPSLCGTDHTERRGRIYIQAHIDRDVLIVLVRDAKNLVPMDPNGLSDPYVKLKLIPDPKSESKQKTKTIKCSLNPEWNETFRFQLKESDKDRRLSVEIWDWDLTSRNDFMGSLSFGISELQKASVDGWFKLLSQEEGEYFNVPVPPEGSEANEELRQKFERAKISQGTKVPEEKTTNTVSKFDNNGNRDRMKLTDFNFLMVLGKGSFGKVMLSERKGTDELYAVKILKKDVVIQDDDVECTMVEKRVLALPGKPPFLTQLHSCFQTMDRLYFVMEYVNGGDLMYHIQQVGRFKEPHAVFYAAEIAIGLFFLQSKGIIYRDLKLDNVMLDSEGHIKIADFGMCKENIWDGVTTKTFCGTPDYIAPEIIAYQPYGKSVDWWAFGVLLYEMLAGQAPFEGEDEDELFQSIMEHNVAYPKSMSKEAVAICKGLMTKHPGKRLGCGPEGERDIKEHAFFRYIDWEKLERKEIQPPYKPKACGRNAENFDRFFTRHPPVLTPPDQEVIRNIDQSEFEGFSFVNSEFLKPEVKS
Sequence of PKCβ (P05771 whole entry, species assumed): as the sequence (P05771 whole entry) above
Sequence of PKN2 (Q16513 whole entry): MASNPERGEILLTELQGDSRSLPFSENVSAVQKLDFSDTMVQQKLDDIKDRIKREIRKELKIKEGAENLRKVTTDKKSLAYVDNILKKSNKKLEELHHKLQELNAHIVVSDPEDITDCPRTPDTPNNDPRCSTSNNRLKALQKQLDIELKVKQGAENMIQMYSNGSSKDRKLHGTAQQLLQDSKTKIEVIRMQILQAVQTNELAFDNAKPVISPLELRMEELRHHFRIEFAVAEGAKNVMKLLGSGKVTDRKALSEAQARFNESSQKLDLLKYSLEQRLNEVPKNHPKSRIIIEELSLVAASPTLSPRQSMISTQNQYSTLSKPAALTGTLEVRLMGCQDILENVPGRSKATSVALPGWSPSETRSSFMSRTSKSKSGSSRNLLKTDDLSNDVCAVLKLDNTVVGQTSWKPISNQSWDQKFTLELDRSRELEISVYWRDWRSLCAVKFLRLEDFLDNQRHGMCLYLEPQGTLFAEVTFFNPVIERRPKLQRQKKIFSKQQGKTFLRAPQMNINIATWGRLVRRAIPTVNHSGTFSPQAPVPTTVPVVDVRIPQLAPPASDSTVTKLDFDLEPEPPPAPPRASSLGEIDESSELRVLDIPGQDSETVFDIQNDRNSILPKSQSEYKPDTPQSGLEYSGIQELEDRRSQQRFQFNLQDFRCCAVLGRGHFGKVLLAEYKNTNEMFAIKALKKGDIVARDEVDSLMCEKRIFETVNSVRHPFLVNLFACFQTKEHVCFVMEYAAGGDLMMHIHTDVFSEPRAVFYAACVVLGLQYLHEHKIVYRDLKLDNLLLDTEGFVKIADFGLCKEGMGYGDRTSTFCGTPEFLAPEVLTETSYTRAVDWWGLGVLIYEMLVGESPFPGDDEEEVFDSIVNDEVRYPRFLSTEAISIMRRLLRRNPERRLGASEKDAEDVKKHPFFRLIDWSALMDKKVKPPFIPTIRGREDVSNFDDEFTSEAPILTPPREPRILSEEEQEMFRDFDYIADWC
Sequence of PKCδ (Q05655 whole entry): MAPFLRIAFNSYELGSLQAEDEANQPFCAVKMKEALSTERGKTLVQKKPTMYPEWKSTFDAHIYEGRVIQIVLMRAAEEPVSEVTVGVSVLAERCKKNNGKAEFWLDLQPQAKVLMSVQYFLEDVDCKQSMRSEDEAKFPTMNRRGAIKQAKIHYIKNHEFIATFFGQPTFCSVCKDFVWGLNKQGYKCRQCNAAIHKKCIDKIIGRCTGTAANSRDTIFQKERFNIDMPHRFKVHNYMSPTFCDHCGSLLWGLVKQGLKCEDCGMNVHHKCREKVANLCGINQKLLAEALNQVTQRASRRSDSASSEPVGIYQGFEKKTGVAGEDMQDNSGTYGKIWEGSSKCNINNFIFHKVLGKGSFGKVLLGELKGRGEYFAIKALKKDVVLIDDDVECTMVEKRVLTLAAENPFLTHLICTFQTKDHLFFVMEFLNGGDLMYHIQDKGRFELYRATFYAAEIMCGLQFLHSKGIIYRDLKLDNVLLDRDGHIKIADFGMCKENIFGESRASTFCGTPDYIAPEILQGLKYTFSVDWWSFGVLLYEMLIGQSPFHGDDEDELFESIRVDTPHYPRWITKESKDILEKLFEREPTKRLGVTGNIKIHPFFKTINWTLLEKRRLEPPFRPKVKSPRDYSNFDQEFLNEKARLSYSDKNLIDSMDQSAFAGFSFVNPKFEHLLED

As to `CN[C@@H]1C[C@H]2O[C@@](C)([C@@H]1OC)n1c3ccccc3c3c4c(c5c6ccccc6n2c5c31)C(=O)N[C@H]4O` [UCN-01, 7-hydroxystaurosporine], the “difference in AUC of cell death kinetics between FMF and HD monocytes (in words)” value in test [1] was “statistical difference”. Besides, the “time to reach 20% cell death, FMF patients' monocytes” value in test [1] (UCN-01 12.5 μM, no priming) was “less than 50 minutes”. In addition, the IC50 on PKCε is 530 nM.
In the case of `O=c1c(O)c(-c2ccc(O)c(O)c2)oc2cc(O)cc(O)c12` [Quercetin], the IC50 in the test with PI3K was 2400 to 5400 nM.
With `CO[C@@H]1C[C@@H](C[C@H]2CC[C@H](C)[C@H]([C@@H](C)C(=O)O)O2)O[C@]2(O[C@](C)([C@H]3CC[C@@](C)([C@@H]4O[C@@H]([C@H]5O[C@@](O)(CO)[C@H](C)C[C@@H]5C)C[C@@H]4C)O3)C[C@H]2C)[C@@H]1C` [nigericin], in test [1] (setting [4]), the “time to reach 20% cell death, FMF patients' monocytes” value came out at 74 min and the “time to reach 20% cell death, monocytes from healthy controls” value was 72 min. Also, the “difference in AUC of cell death kinetics between FMF and HD monocytes (in words)” value in test [1] was “did not demonstrate any statistical difference”.
In the case of `CS(=O)(=O)O.Cn1cc(C2=C(c3cn(CCCSC(=N)N)c4ccccc34)C(=O)NC2=O)c2ccccc21` [Ro 31-8220 Mesylate], the IC50 on PKCα is 5 nM; at PKCβI, 24 nM; at PKCγ, 27 nM; on PKCβII, 14 nM; at PKCε it was 24 nM. Besides, the “difference in IL-1β release between FMF and HD monocytes (in words)” value in test [2] is listed as “same trends”. For the same compound, the “efficacy to inhibit PKN2 (in words)” value at PKN2 was “low efficacy”.
Consider `Cc1cc(N)c2ccccc2[n+]1CCCCCCCCCC[n+]1c(C)cc(N)c2ccccc21` [Dequalinium Chloride], for which the figures for the IC50 (in the test with PKC; in test [3]) were 7000 to 18000 nM and 1100 nM, respectively.
For the compound `CN1CCN(c2nc(C3=C(c4c[nH]c5ccccc45)C(=O)NC3=O)c3ccccc3n2)CC1` [Sotrastaurin], at PKCθ, the Ki was 0.22 nM. In addition, the “activity on PKCζ (in words)” value at PKCζ is “inactive”.
In the case of `COc1ccc2c(c1)c(C1=C(c3c[nH]c4ccccc34)C(=O)NC1=O)cn2CCCN(C)C` [Go 6983], the IC50 on PKCδ is 10 nM; on PKCα, 7 nM; at PKCβ, 7 nM; at PKCγ, 6 nM. Further, the “activity on PKCμ (in words)” value on PKCμ is “inactive”. For the same compound, the “activity on PKCζ (in words)” value at PKCζ is listed as “less potent”.
Regarding `O=c1ccc2ccc(O)c(O)c2o1` [Daphnetin], the IC50 in the test on PKC was 25000 nM; in the test with PKA, 9330 nM.
As for `Cn1c2ccccc2c2c3c(c4c5ccccc5n(CCC#N)c4c21)CNC3=O` [Go6976], the IC50 in the test with PKC (Rat brain) was 7.9 nM.
Take `CN(C)CCCn1cc(C2=C(c3c[nH]c4ccccc34)C(=O)NC2=O)c2ccccc21` [Bisindolylmaleimide I]: in the test on PKC, the “selectivity for PKC as compared to EGFR, PDGFR and insulin receptor” value is reported as “more than 3000 fold”. In addition, the IC50 was 20 nM at PKCα, 17 nM at PKCβI, 20 nM on PKCγ and 16 nM at PKCβII.
Turning to `Nc1ncnc2c1ncn2[C@@H]1O[C@H](COP(=O)(O)OP(=O)(O)OP(=O)(O)O)[C@@H](O)[C@H]1O` [ATP], the “difference in IL-1β release between FMF and HD monocytes (in words)” value in test [2] is “did not observe any difference”.
